For data set [1], the system named is cerebrocortical neurons from rats at embryonic age 17. The experiment in a line: Peroxidation of neuronal membrane lipids by ferrous sulfate and ascorbic acid (TBA). The class given is cell-based, rat. The settings on record: 48 hours pretreatment. Here is the method: Then the medium was changed to a fresh medium containing ferrous sulfate and ascorbic acid but not containing ginsenoside Rb1 and the neuronal culture was maintained for 2 hours to generate hydroxyl radicals for giving an oxidative injury to neuronal membrane. The generated neuronal membrane lipid peroxide was determined by photometrically measuring a fixed amount of thiobarbituric acid (TBA) after solubilizing the cells with sodium dodecyl sulfate.
Then the medium was changed to a fresh medium containing ferrous sulfate and ascorbic acid but no ginsenoside Rb1, and the neuronal culture was maintained for 2 hours to generate hydroxyl radicals for giving oxidative injury to neuronal membrane. The generated neuronal membrane lipid peroxide was photometrically determined by measuring the fixed amount of thiobarbituric acid (TBA) after solubilizing the cells with sodium dodecyl sulfate.

The subject of data set [2] is gerbils loaded with 3 minute forebrain ischemia. The experiment in a line: TUNEL staining of hippocampal CA1 field after 3 minute forebrain ischemia, intracerebroventricular administration. It counts as in vivo, gerbil. As to conditions: i.c.v. 2.5 or 25 ng single, then 60 or 600 ng/day for 1 week; 1 week after ischemia. The protocol: In order to analyze a suppressive effect of ginsenoside Rb1 on intracerebral apoptosis-like neuron death, the present inventors examined whether actually occurring pathological apoptosis-like neuron death in the mature brain can be reduced by administration of ginsenoside Rb1 or not. The three minute forebrain ischemia model of gerbils was used as model animal. It was reported that at one week after 3 minute ischemia, about one half of hippocampal CA1 pyramidal neurons degenerated (Sakanaka M., et al., Proc. Natl. Acad. Sci. USA, 95, 4635-4640, 1998). […] With this model animal, it was examined with TUNEL staining whether apoptosis-like neuron death on the 7th day after 3 minute ischemia could be suppressed by intracerebroventricular administration of ginsenoside Rb1 or not.
Immediately after 3 minute forebrain ischemia in gerbils under inhalation anesthesia, a single intracerebroventricular administration of ginsenoside Rb1 at the dose of 2.5 ng or 25 ng was performed, and subsequently ginsenoside Rb1 (60 ng/day or 600 ng/day) was continuously infused into the cerebral ventricles through an osmotic minipump for 1 week. At one week after 3 minute forebrain ischemia, the gerbils were perfused and fixed transcardially with phosphate buffer containing 4% paraformaldehyde under pentobarbital anesthesia and the brain was dissected out. […]

For data set [3], the system named is transient forebrain ischemia model of gerbils. As to conditions: cited from earlier work.
A further data set concerns nerve cells. The settings on record: approximately 500 μM (550 μg/ml); cited from earlier work.
The next data set relates to cultured nerve cells. As to conditions: cited from earlier work.
In data set [4] the test system is SH-SP rats with permanent occlusion of the MCA. As to conditions: cited from earlier work.
The conditions of data set [5]: in vivo.
For data set [6] the following is noted: intracerebroventricular administration; cited from earlier work.
The test system of data set [7] is cerebrocortical nerve cells (neurons) from rats at embryonic age 17.
Procedure: After maintaining cerebrocortical nerve cells (neurons) from rats at embryonic age 17 in a serum-free culture medium for 4 or 5 days, the medium was replaced with a fresh medium containing or not containing ginsenoside Rb1 and the neurons were incubated for 24 hours. Then, SNP at the concentration of 100 μM was added to the medium for 10 minutes, and the nerve cells (neurons) were maintained in a medium containing ginsenoside Rb1 for 16 hours. Survival rate of the nerve cells was measured by using a redox indicator, alamar blue.
In the present experiments, ginsenoside Rb1 was added before and after SNP loading or only after SNP loading, and its effects were measured.
After maintaining cerebrocortical nerve cells (neurons) from rats at embryonic age 17 in a serum-free culture medium for 4 or 5 days, the medium was replaced with a fresh medium containing ginsenoside Rb1 at the concentrations of 1 fg/ml, 100 fg/ml and 100 pg/ml or no ginsenoside Rb1 (0 fg/ml), and the neurons were incubated for 24 hours. Thereafter a nitric oxide (NO) donor, sodium nitroprusside (SNP) at a concentration of 100 μM, was added to the medium for 10 minutes. Then the nerve cells (neurons) were maintained in a medium containing ginsenoside Rb1 for 16 hours. Survival rate of the nerve cells was measured by using a redox indicator, alamar blue.
Data are represented as a mean±SE. […]
The conditions of data set [8]: in vivo; cited from earlier work.
For a further data set, the system named is neuronal cells. The settings on record: 0.11-11 μg/ml; cited from earlier work.
Another data set concerns brain. As to conditions: intraperitoneal administration; cited from earlier work.
The mark [9] stands for this setting: i.c.v. infusion starting immediately after permanent MCA occlusion.

On to `CC(C)=CCC[C@](C)(O[C@@H]1O[C@H](CO[C@@H]2O[C@H](CO)[C@@H](O)[C@H](O)[C@H]2O)[C@@H](O)[C@H](O)[C@H]1O)[C@H]1CC[C@]2(C)[C@@H]1[C@H](O)C[C@@H]1[C@@]3(C)CC[C@H](O[C@@H]4O[C@H](CO)[C@@H](O)[C@H](O)[C@H]4O[C@@H]4O[C@H](CO)[C@@H](O)[C@H](O)[C@H]4O)C(C)(C)[C@@H]3CC[C@]12C` [ginsenoside Rb1], for which, in data set [1] (0.1-10 fg/ml), the “preventive effect on lipid peroxidation” value is reported as “no preventive effects”. In addition, the “preventive effect on peroxidation of nerve cell membrane lipid” value in data set [1] (100 fg/ml) is given as “slightly confirmed”. Further, the “TUNEL-positive nerve cells in hippocampal CA1 field” value in data set [2] is given as “significantly reduced in a dose-dependent manner”. Further, the “delayed neuronal death and learning disability caused by 5 minute occlusion” value in data set [3] (i.p. 10 or 20 mg/kg once a day for one week in advance) is recorded as “significantly prevent”. For the same compound, the “hippocampal CA1 pyramidal neurons rescued” value in [3] (i.p. 10 or 20 mg/kg/day before ischemic loading) is recorded as “about 30%”. Moreover, the “effect of intraperitoneal administration after ischemia” value in data set [3] (i.p. immediately after 3- or 5-minute occlusion of the common carotid arteries) is on record as “no effect”. Further, the “apoptosis-like nerve cell death” value in the data set on nerve cells was “has a possibility to prevent”. The “neurotoxicity of free radicals” value in the data set with cultured nerve cells (0.1-100 fg/ml) is “reduce the neurotoxicity”. The “neuronal necrosis caused by ferrous sulfate” value in the data set on cultured nerve cells (1-100 fg/ml previously admixed in culture medium) is listed as “reduces neuronal necrosis”. Moreover, the “suppressive effect on cerebral infarction” value in data set [4] (continuous i.c.v. infusion 0.6 μg/day after MCA occlusion) is “significant suppressive effect”. Also, in data set [4] (continuous i.c.v. infusion 6 μg/day or 0.06 μg/day after MCA occlusion), the “curative effect on cerebral infarction” value was “no curative effect”. In [4] (setting [9]), the “infarcted area in the cerebral cortex” value is reported as “significant reduction” and the “ischemia-induced place navigation disability” value was “ameliorated”. Also, the “adverse effect on administered animals” value in data set [5] is “No adverse effect”. Besides, the “brain temperature, cerebral blood flow and blood pressure” value in [6] is reported as “no effects”. For the same compound, the “apoptosis of nerve cells after SNP treatment” value in [7] (1-100 fg/ml, added before and after SNP (100 μM, 10 minutes) or only after SNP) is recorded as “significantly suppressed”. Besides, the “concentrations in extracellular fluid that suppress apoptosis of nerve cells” value in data set [7] (SNP-treated cultured neurons) was 1 to 100 fg/mL. Moreover, in data set [8], the “detection in blood after oral administration” value is “can not be detected”. Moreover, the glutamate-mediated neurotoxicity entry in the data set on neuronal cells was “reduce glutamate-mediated neurotoxicity”. For the same compound, in the data set on brain, the “action on the brain” value is given as “tranquilizing action”.
